Assay results from PMC9734143, “An efficient human stem cells derived cardiotoxicity testing platform for testing oncotherapeutic analogues of quercetin and cinnamic acid” (Scientific Reports, 2022).
Read-outs that look alike come from different tables or passages of the source.

Columns and labels:
[1] = test system: WJMSCs; test: CCK-8 assay in undifferentiated WJMSCs; assay type: cell-based, human; details: 24 h; Dox 1 µM, 5FU 1 µM, Cis 5 µM; undifferentiated cells
Experimental: Mesenchymal stem cells from Wharton's jelly (WJMSCs) were isolated from the Wharton's jelly of the human umbilical cord via enzymatic digestion as described previously with slight modifications. Experiments were performed after obtaining clearance from Institutional Ethical Committee ([…] Hospital, Bangalore, India. Informed consent was obtained from the donor and all the experiments were performed in accordance with relevant guidelines and regulations. Rat cardiomyoblast cell line, H9C2 was obtained from National Centre for Cell Science (NCCS), Pune, India. WJMSCs were maintained in KnockoutTM Dulbecco's Modified Eagle Medium/Nutrient Mixture F-12 (KO-DMEM/F-12; Gibco, MA, USA) with 10% Fetal bovine serum (FBS, Gibco, MA, USA), 1X GlutaMAX (Gibco, MA, USA), and 1X Antibiotic Antimycotic Solution (Gibco, MA, USA). H9C2 cells were cultured in Dulbecco's Modified Eagle Medium-High Glucose (DMEM-HG; Gibco, MA, USA) supplemented with 10% FBS and 1X Antibiotic-Antimycotic solution at 37 °C in 5% CO2 incubator. […] Similarly, the toxicity of these compounds in terms of the viability of cells was estimated by using the MTT assay and cell counting kit-8 (CCK-8) assay. For MTT assay, after 24 h of treatments, MTT (5 mg/ml of PBS; HiMedia, India) was added, and cells were incubated for 2 h at 37 °C. The formazan crystals that were formed after the incubation were dissolved using dimethyl sulfoxide (DMSO). For the CCK-8 assay, 10 μL of CCK-8 solution (Boster Biological Technology, Pleasanton, CA, USA) was added to each well and incubated for 2 h at 37 °C. The absorbance for MTT and CCK-8 assay was measured at 570 nm and 450 nm respectively using the EnSightTM Multimode plate reader (Perkin Elmer, MA, USA)[49],[50].

[2] = test system: cardiac markers (NKX2.5, GATA4, Troponin I, Troponin T, MHCα) in WJCM; test: qRT-PCR gene expression of cardiac-specific markers in WJCM
Experimental: Differentiation of WJMSCs was done using a proprietary combination of DNMT and HDAC inhibitors in KO-DMEM/F-12 containing 10% FBS for 48 h. Induction media was replaced with culture media i.e. KO-DMEM/F-12 with 1X GlutaMAX and, 10% FBS after 48 h for 7 days[23].
WJMSC-derived cardiomyocytes (WJCM) and H9C2 were treated with NMJ and QMJ analogues for 24 h. […] To illustrate the toxicity specific to cardiac cells and not a general cytotoxicity, WJMSCs were treated with positive cardiotoxic drugs.
Total ribonucleic acid (RNA) was isolated using RNAiso Plus (TaKaRa, Shiga, Japan) followed by cDNA conversion using PrimeScript™ 1st strand cDNA synthesis kit (TaKaRa, Shiga, Japan). Quantitative reverse transcriptase-polymerase chain reaction (qRT-PCR) was performed by using TB Green™ Premix Ex Taq™ II (Tli RNase H Plus; TaKaRa, Shiga, Japan) for cardiac markers in a QuantStudio™ 5 real-time PCR Systems (Applied Biosystems, USA). All the primers were purchased from Sigma Aldrich, Bangalore, India (Table 1). The relative gene expression was calculated using 2^-∆∆CT and GAPDH, a housekeeping gene was used as endogenous control[52],[53].

[3] = test system: WJMSCs; test: LDH release assay in undifferentiated WJMSCs; assay type: cell-based, human; details: 24 h; Dox 1 µM, 5FU 1 µM, Cis 5 µM; undifferentiated cells
Experimental: Mesenchymal stem cells from Wharton's jelly (WJMSCs) were isolated from the Wharton's jelly of the human umbilical cord via enzymatic digestion as described previously with slight modifications. Experiments were performed after obtaining clearance from Institutional Ethical Committee ([…] Hospital, Bangalore, India. Informed consent was obtained from the donor and all the experiments were performed in accordance with relevant guidelines and regulations. Rat cardiomyoblast cell line, H9C2 was obtained from National Centre for Cell Science (NCCS), Pune, India. WJMSCs were maintained in KnockoutTM Dulbecco's Modified Eagle Medium/Nutrient Mixture F-12 (KO-DMEM/F-12; Gibco, MA, USA) with 10% Fetal bovine serum (FBS, Gibco, MA, USA), 1X GlutaMAX (Gibco, MA, USA), and 1X Antibiotic Antimycotic Solution (Gibco, MA, USA). H9C2 cells were cultured in Dulbecco's Modified Eagle Medium-High Glucose (DMEM-HG; Gibco, MA, USA) supplemented with 10% FBS and 1X Antibiotic-Antimycotic solution at 37 °C in 5% CO2 incubator. […] The experiment was performed as per the manufacturer's protocol. Absorbance was taken at 490 nm and 680 nm (background signal) using multimode plate reader. LDH activity was calculated by subtracting absorbance taken at 680 nm from 490 nm.

[4] = test system: WJMSCs; test: MTT cell viability assay in undifferentiated WJMSCs; assay type: cell-based, human; details: 24 h; Dox 1 µM, 5FU 1 µM, Cis 5 µM; undifferentiated cells
Experimental: Similarly, the toxicity of these compounds in terms of the viability of cells was estimated by using the MTT assay and cell counting kit-8 (CCK-8) assay. For MTT assay, after 24 h of treatments, MTT (5 mg/ml of PBS; HiMedia, India) was added, and cells were incubated for 2 h at 37 °C. The formazan crystals that were formed after the incubation were dissolved using dimethyl sulfoxide (DMSO). For the CCK-8 assay, 10 μL of CCK-8 solution (Boster Biological Technology, Pleasanton, CA, USA) was added to each well and incubated for 2 h at 37 °C.

[5] = test system: H9C2 cells; test: MTT cell viability assay in H9C2 cells; assay type: cell-based, rat; details: 24 h; analogues at Vero IC50 concentration; Dox 1 µM
Experimental: (§1) Similarly, the toxicity of these compounds in terms of the viability of cells was estimated by using the MTT assay and cell counting kit-8 (CCK-8) assay. For MTT assay, after 24 h of treatments, MTT (5 mg/ml of PBS; HiMedia, India) was added, and cells were incubated for 2 h at 37 °C. The formazan crystals that were formed after the incubation were dissolved using dimethyl sulfoxide (DMSO). For the CCK-8 assay, 10 μL of CCK-8 solution (Boster Biological Technology, Pleasanton, CA, USA) was added to each well and incubated for 2 h at 37 °C. The absorbance for MTT and CCK-8 assay was measured at 570 nm and 450 nm respectively using the EnSight™ Multimode plate reader (Perkin Elmer, MA, USA)[49],[50].

[6] = test system: WJMSC-derived cardiomyocytes (WJCM); test: MTT and CCK-8 cell viability assays in WJCM; assay type: cell-based, human; details: 24 h; analogues at Vero IC50 concentration; Dox 1 µM
Experimental: as §1

[7] = test system: cardiomyocytes (WJCM and H9C2 cells); test: Cardiotoxicity across parameters as summarised in the discussion (WJCM and H9C2 cells); assay type: cell-based, human and rat; details: for overall cardiotoxicity across the parameters analyzed: analogues at Vero IC50 concentration, 24 h
From the text: We investigated the effects of 3-hydroxyflavone (QMJ-2, QMJ-5, and QMJ-6) and cinnamyl sulfonamide-hydroxamate (NMJ-1, NMJ-2, NMJ-3) in WJCM and H9C2 cells using the concentrations reported for non-cancerous Vero cells. The prerequisite for any synthesized drug molecules is that they should be nontoxic to cardiac cells.

[8] = test system: WJMSC-derived cardiomyocytes (WJCM); test: LDH release assay in WJCM; assay type: cell-based, human; details: 24 h; analogues at Vero IC50 concentration
Experimental: (§2) The experiment was performed as per the manufacturer’s protocol. Absorbance was taken at 490 nm and 680 nm (background signal) using multimode plate reader. LDH activity was calculated by subtracting absorbance taken at 680 nm from 490 nm.

[9] = test system: H9C2 cells; test: LDH release assay in H9C2 cells; assay type: cell-based, rat; details: 24 h; analogues at Vero IC50 concentration
Experimental: as §2

[10] = test system: colorectal cancer; parameters: method as in PMID 25824412, PMID 30687400; details: previously reported studies; cited from earlier work
[11] = test system: Vero, a non-cancerous cell line; parameters: method as in PMID 25824412, PMID 30687400; details: read-out: IC50 in Vero cells; cited from earlier work
[12] = qRT-PCR, analogues at Vero IC50 concentration, Dox, 5FU, Cis as positive cardiotoxic drugs
[13] = discussion summary, cell model not specified
[14] = qRT-PCR, analogues at Vero IC50 concentration

| Structure (SMILES) | CCK-8 in WJMSCs [1] | cardiac marker gene expression in WJCM (all markers together) [2, 12] | LDH release in WJMSCs [3] | MTT cell viability in WJMSCs [4] | decrease in viability of H9C2 cells (MTT) [5] | ROS level in treated cardiomyocytes [7, 13] | active mitochondria status in treated cardiomyocytes [7, 13] | intracellular calcium level in treated cardiomyocytes [7, 13] | LDH release in WJCM [8] | LDH release in H9C2 cells [9] | concentration found effective against cancer [10] | cardiac marker gene expression in WJCM (all markers together) [2] | GATA4 gene expression in WJCM [2, 14] | MHCα gene expression in WJCM [2, 14] | Troponin I gene expression in WJCM [2, 14] | IC50 [11] | overall cardiotoxicity across the parameters analyzed [7] | cytotoxic effect against cardiomyocytes by MTT, CCK-8 and LDH assay [7, 13] | further results |
| --- | --- | --- | --- | --- | --- | --- | --- | --- | --- | --- | --- | --- | --- | --- | --- | --- | --- | --- | --- |
| O=c1[nH]cc(F)c(=O)[nH]1 [5FU, 5-fluorouracil] | no significant difference | reduced all the cardiac markers expression drastically | no significant difference | no significant difference |  |  |  |  |  |  |  |  |  |  |  |  |  |  |  |
| COc1cccc2c1C(=O)c1c(O)c3c(c(O)c1C2=O)C[C@@](O)(C(=O)CO)C[C@@H]3O[C@H]1C[C@H](N)[C@H](O)[C@H](C)O1 [Dox, doxorubicin, reference compound] | no significant difference | reduced all the cardiac markers expression drastically | no significant difference | no significant difference | ~25% | increased ROS level | affected cardiomyocyte mitochondrial activity | alternation in calcium |  |  |  |  |  |  |  |  |  |  | toxicity / cell viability in WJCM (MTT, CCK-8), result in words [6]: reduced cell viability drastically; NO production / NO levels [7, 13]: reduced NO production |
| Cc1ccc(-c2oc3ccccc3c(=O)c2O)cc1 [QMJ-2, 3-hydroxy-2-(4-methylphenyl)-4H-1-benzopyran-4-one] |  |  |  |  | 10–20% | increased ROS levels | loss of mitochondria | increased the level | increase in LDH | increase in LDH | 68 µM | drastic reduction | decreased the expression | decreased the expression | decreased the expression | 140 µM | cardiotoxic | induced toxicity | Troponin T gene expression in WJCM, result in words [2, 14]: milder increase |
| N.N.[Cl][Pt][Cl] [Cis, cisplatin] | no significant difference |  | no significant difference |  |  |  |  |  |  |  |  | reduced all the cardiac markers expression drastically |  |  |  |  |  |  |  |
| Cc1ccc(-c2oc3cc(C)ccc3c(=O)c2O)cc1 [QMJ-5, 3-Hydroxy-7-methyl-2-(4-methylphenyl)-4H-1-benzopyran-4-one] |  | drastic reduction |  |  | 10–20% | increased ROS levels | loss of mitochondria | increased the level | increase in LDH | increase in LDH | 27.4 µM |  | decreased the expression | decreased the expression | decreased the expression | 55.6 µM | cardiotoxic | induced toxicity |  |
| O=C(/C=C/c1ccc(S(=O)(=O)NCc2cccs2)cc1)NO [NMJ-1] |  | drastic reduction |  |  | 10–20% | increased ROS levels | loss of mitochondria | increased the level | increase in LDH | increase in LDH | 5.07 µM |  | decreased the expression | decreased the expression | decreased the expression | 9.7 µM | cardiotoxic | induced toxicity |  |
